Results on five molecules are retold here after patent publication US6632906B1, “Adhesives” (Strakan Limited, priority 1999, dated 2003).

What all share (format): physicochemical
The nature of series [1]: Bakelite 180° peel strength test. The method, then:
Peel strength was measured by coating each sample onto a PET strip 25 mm wide and 100 mm long and applying the strip to a bakelite plate. Then, a roller having a load of 300 g is rolled back and forth thereon to secure the sample to the plate. The sample is subsequently peeled off at an angle of 180° at a rate of 300 mm/min. to determine peel force. Unless otherwise specified, peel force is measured herein by this test.
In this Example, PET strips were 20 mm in width. In the adhesive of Example 1, adipic acid diamine was dissolved in methanol+water (19:1 by volume) to a concentration of 0.5%.
The Nitto Adhesive was dissolved in ethyl acetate. The cross-linking agent (aluminium tri-acetylacetonate) was dissolved in acetylacetone+ethylacetate (1:1 by volume) solution to a concentration of 0.5%.
IPM was used as plasticiser for both. Heating was at 80° C. for 20 minutes in both cases.

Series [2] in a line: Stability of drug-containing patches, adhesive of the invention. The conditions noted are these: 6 days at 60° C. The method, then:
The mixed solutions were coated onto PET film and heated at 80° C. for 20 minutes. The content of drug was determined both immediately after preparation and after storage at 6 days at 60° C.

Series [3] is described as follows: Stability of drugs in Nitto adhesive. The procedure: The mixed solutions were coated onto PET film and heated at 80° C. for 20 minutes. The content of drug was determined immediately after preparation and after storage for 6 days at 60° C.
Series [4] can be described thus: Saturation concentration of drugs in adhesives (crystallisation). Set-up: key: No crystallisation. Drug is dissolved; ¦: Crystallisation. As to conditions: IPM 1.0 g. The text has this:
Oestradiol (a hydrophobic drug) and piroxicam (a hydrophilic drug), were investigated to establish their saturation concentrations in the two adhesives. As before, formulations 3 in each of Tables 9 and 10 were used.

Setting [5] is: Adhesive B from Example 11, diethylene triamine 20 mg as cross-linker.
Where [6] appears, read: allyl acetoacetate polymer of Example 9, 0.8 g of plasticiser, adipic acid diamine cross-linked.
The mark [7] stands for this setting: Nitto Adhesive 1.0 g, cross-linker 10 mg, drug 40.
[8] abbreviates: Nitto Adhesive 1.0 g, cross-linker 10 mg, drug 50.
The mark [9] stands for this setting: Nitto Adhesive 1.0 g, cross-linker 10 mg, drug 75.

The structures appear in SMILES notation.

In the case of `CCCCCCCCCCCCCC(=O)OC(C)C` [IPM, isopropyl myristate], the Adhesion strength in series [1] (setting [5]) is reported as 30 g/25 mm; in series [1] (setting [6]), 80 g/20 mm.

As for `CCCCCCCC/C=C\CCCCCCCC(=O)OC` [MO, methyl oleate], the results for the Adhesion strength in series [1] (setting [5]) and in series [1] (setting [6]) were 35 g/25 mm and 95 g/20 mm, respectively.

On to `CN1C(C(=O)Nc2ccccn2)=C(O)c2ccccc2S1(=O)=O` [Piroxicam], for which the “deterioration of drug content after storage” value in series [2] is “no measurable deterioration”. In series [3] (during the preparation process and after heating 60° C. for 6 days), the stability of drug result is recorded as “stable”. The Crystallisation result in series [4] (Adhesive of invention 1.0 g, cross-linker 3.0 mg, drug 50) is listed as “¦”; in series [4] (Adhesive of invention 1.0 g, cross-linker 3.0 mg, drug 75), “¦”; in series [4] (setting [7]) it was “¦”; in series [4] (setting [8]), “¦”; in series [4] (setting [9]), “¦”.

In the case of `C[C@]12CC[C@@H]3c4ccc(O)cc4CC[C@H]3[C@@H]1CC[C@@H]2O` [oestradiol], the Crystallisation result in series [4] (Adhesive of invention 1.0 g, cross-linker 3.0 mg, drug 120 mg) is listed as “¦”; in series [4] (Adhesive of invention 1.0 g, cross-linker 3.0 mg, drug 150 mg), “¦”; in series [4] (setting [7]), “¦”; in series [4] (setting [8]) it was “¦”; in series [4] (setting [9]), “¦”.

As to `C=C1CC[C@H](O)C/C1=C/C=C1\CCC[C@]2(C)[C@@H]([C@H](C)/C=C/[C@H](C)C(C)C)CC[C@@H]12` [vitamin D2], in series [2], the “deterioration of drug content after storage” value is “no measurable deterioration”. Also, in series [3] (6 days at 60° C.), the “decomposed further during the 6 day storage period” value came out at 20%. Besides, the “decomposed during the preparation process” value in series [3] (coated onto PET film, 80° C. for 20 minutes) is given as “ca. 30%”.
